According to US11369565B2, “Amino-pyrimidine skeletal muscle modulators” (Cytokinetics, Inc., priority 2010, dated 2022):

Test system: rabbit skeletal myofibrils (approximately 90% fast fibers)
Assay: Activation of fast skeletal myofibrils (PUMA coupled-enzyme ATPase assay at pCa25)
Format: biochemical
Settings: concentration at which the compound increased the enzymatic activity by 40%; calcium at pCa25; PM12 buffer pH 6.8
Method in brief: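 In pH 6.8 PM12 buffer (12 mM Pipes, 2 mM MgCl2, 1 mM DTT), ADP from myosin regenerated via pyruvate kinase/lactate dehydrogenase, with absorbance change at 340 nm from NADH oxidation as read-out. Calcium set at pCa25; Triton-washed rabbit skeletal myofibrils (about 90% fast fibres) used.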

Row | Mean AC1.4 | Compound
1 | D (D=>20 uM) | CC(=O)Nc1ccccc1-c1cnc(NC[C@]2(c3ncccc3F)C[C@H](F)C2)nc1 [N-{2-[2-({[3-fluoro-1-(3-fluoro(2-pyridyl))cyclobutyl]methyl}amino)pyrimidin-5-yl]phenyl}acetamide]
2 | A (A=<1 uM) | CC(C)(CNc1ncc(-c2ccc3[nH]nc(N)c3c2)cn1)c1ccc(F)cc1 [[5-(3-amino(1H-indazol-5-yl))pyrimidin-2-yl][2-(4-fluorophenyl)-2-methylpropyl]amine]
3 | 6 µM | CS(=O)(=O)N1CC(NC(=O)c2ccc(F)c(-c3cnc(NC[C@]4(c5ncccc5F)C[C@H](F)C4)nc3)c2)C1 [{4-fluoro-3-[2-({[3-fluoro-1-(3-fluoro(2-pyridyl))cyclobutyl)]methyl}amino)pyridin-5-yl]phenyl}-N-[1-(methylsulfonyl)azetidin-3-yl]carboxamide]
4 | D (D=>20 uM) | CCOC(=O)c1nnc(-c2cnc(NC(C)(C)c3ncccc3Cl)nc2)o1 [ethyl 5-(2-{[1-(3-chloro(2-pyridyl))-isopropyl]amino}pyrimidin-5-yl)-1,3,4-oxadiazole-2-carboxylate]
5 | B (B=1-10 uM) | Cc1cc(NC2CCCCC2)nc(N[C@H](C)c2ccccc2)n1 [((1R)-1-phenylethyl)[4-(cyclohexylamino)-6-methylpyrimidin-2-yl]amine]
6 | D (D=>20 uM) | CCOC(=O)c1csc(-c2cnc(NCC3(c4ncccc4F)CCC3)nc2)n1 [ethyl 2-[2-({[(3-fluoro-2-pyridyl)cyclobutyl]methyl}amino)pyrimidin-5-yl]-1,3-thiazole-4-carboxylate]
7 | A (A=<1 uM) | CS(=O)(=O)NC(=O)c1cccc(-c2cnc(NCC3(c4ncccc4F)CC(F)C3)nc2)c1 (stereo not drawn) [{3-[2-({[3-fluoro-1-(3-fluoro(2-pyridyl))cyclobutyl]methyl}amino)pyrimidin-5-yl]phenyl}-N-(methylsulfonyl)carboxamide]
8 | D (D=>20 uM) | CC(C)(Nc1ncc(-c2cnc(N)nc2)cn1)c1ncccc1F [[5-(2-aminopyrimidin-5-yl)pyrimidin-2-yl][1-(3-fluoro(2-pyridyl))-isopropyl]amine]
9 | D (D=>20 uM) | O=C(Nc1ccc(F)cc1)c1cnc(NCC2(c3ncccc3F)CCC2)nc1 [[2-({[(3-fluoro(2-pyridyl))cyclobutyl]methyl}amino)pyrimidin-5-yl]-N-(4-fluorophenyl)carboxamide]
10 | C (C=10-20 uM) | Nc1nccc(-c2cnc(NC[C@]3(c4ncccc4F)C[C@H](F)C3)nc2)n1 [[5-(2-aminopyrimidin-4-yl)pyrimidin-2-yl]{[3-fluoro-1-(3-fluoro(2-pyridyl))cyclobutyl]methyl)amine]
11 | D (D=>20 uM) | O=C(Nc1ccccc1F)c1cnc(NCC2(c3ncccc3F)CCC2)nc1 [[2-({[(3-fluoro(2-pyridyl))cyclobutyl]methyl}amino)pyrimidin-5-yl]-N-(2-fluorophenyl)carboxamide]
12 | A (A=<1 uM) | CC(=O)NCc1cnc(-c2cnc(NCC3(c4ncccc4Cl)CCC3)nc2)s1 [N-({2-[2-({[(3-chloro-2-pyridyl)cyclobutyl]methyl}amino)pyrimidin-5-yl]-1,3-thiazol-5-yl}methyl)acetamide]
13 | D (D=>20 uM) | Fc1cccnc1C1(Nc2ncc3cc(Br)ccc3n2)CCC1 [(6-bromoquinazolin-2-yl)[(3-fluoro(2-pyridyl))cyclobutyl]amine]
14 | C (C=10-20 uM) | COc1ccc(C)nc1-c1cnc(NC[C@]2(c3ncccc3F)C[C@H](F)C2)nc1 [{[3-fluoro-1-(3-fluoro(2-pyridyl))cyclobutyl]methyl}[5-(3-methoxy-6-methyl(2-pyridyl))pyrimidin-2-yl]amine]

More lines, now with the values behind:

Row | Compound | Mean AC1.4
15 | N#Cc1cc(-c2cnc(NC3(c4ncccc4F)CCC3)nc2)ccn1 [4-(2-{[(3-fluoro-2-pyridyl)cyclobutyl]amino}pyrimidin-5-yl)pyridine-2-carbonitrile] | D (D=>20 uM)
16 | NC(=O)c1ccnc(-c2cnc(NC[C@]3(c4ncccc4F)C[C@H](F)C3)nc2)c1 [2-[2-({[3-fluoro-1-(3-fluoro(2-pyridyl))cyclobutyl]methyl}amino)pyrimidin-5-yl]pyridine-4-carboxamide] | B (B=1-10 uM)
17 | CC(C)(C)OC(=O)NCC(=O)NCc1cnn(-c2cnc(NC(C)(C)c3ncccc3Cl)nc2)c1 [2-[(tert-butoxy)carbonylamino]-N-{[1-(2-{[1-(3-chloro(2-pyridyl))-isopropyl]amino}pyrimidin-5-yl)pyrazol-4-yl]methyl}acetamide] | D (D=>20 uM)
18 | Cc1nc(NC[C@]2(c3ncccc3F)C[C@H](F)C2)ncc1-c1cccc(C(N)=O)c1 [3-[2-({[3-fluoro-1-(3-fluoro(2-pyridyl))cyclobutyl]methyl}amino)-4-methylpyrimidin-5-yl]benzamide] | B (B=1-10 uM)
19 | NC(=O)c1cccc(-c2cnc(N)nc2)c1 [3-(2-aminopyrimidin-5-yl)benzamide] | D (D=>20 uM)
20 | COc1ncc(-c2cnc(NC(C)(C)c3ncccc3Cl)nc2)cc1C(N)=O [5-(2-{[1-(3-chloro(2-pyridyl))-isopropyl]amino}pyrimidin-5-yl)-2-methoxypyridine-3-carboxamide] | B (B=1-10 uM)
21 | CC(C)(Nc1ncc(-c2cccc(C(N)=O)c2)cn1)c1ncccc1S(C)(=O)=O [3-[2-({1-methyl-1-[3-(methylsulfonyl)(2-pyridyl)]ethyl}amino)pyrimidin-5-yl]benzamide] | D (D=>20 uM)
22 | NC(=O)c1cccc(-c2cnc(NCC3(c4ncccc4F)CC(F)C3)nc2)c1 (stereo not drawn) [3-[2-({[3-fluoro-1-(3-fluoro(2-pyridyl))cyclobutyl]methyl}amino)pyrimidin-5-yl]benzamide] | A (A=<1 uM)
23 | CC(C)(CNc1ncc2c(n1)CN(S(C)(=O)=O)CC2)c1ccc(F)cc1 [2-{[2-(4-fluorophenyl)-2-methylpropyl]amino}-7-(methylsulfonyl)-5,6,7,8-tetrahydropyridino[3,4-d]pyrimidine] | C (C=10-20 uM)
24 | CC(C)(CNc1ncc2c(n1)CCN(S(C)(=O)=O)C2)c1ccc(F)cc1 [2-{[2-(4-fluorophenyl)-2-methylpropyl]amino}-6-(methylsulfonyl)-5,6,7,8-tetrahydropyridino[4,3-d]pyrimidine] | B (B=1-10 uM)
25 | CC(C)(Nc1ncc(-c2cc(C(N)=O)ccc2F)cn1)c1ncccc1C(F)F [3-[2-({1-[3-(difluoromethyl)(2-pyridyl)]-isopropyl)amino)pyrimidin-5-yl]-4-fluorobenzamide] | B (B=1-10 uM)
26 | CC(C)(Nc1ncc(-c2csc(C(N)=O)c2)cn1)c1ncccc1Cl [4-(2-{[1-(3-chloro(2-pyridyl))-isopropyl]amino}pyrimidin-5-yl)thiophene-2-carboxamide] | B (B=1-10 uM)
27 | CC(C)(O)c1cnn(-c2cnc(NC(C)(C)c3ncccc3Cl)nc2)c1 [2-[1-(2-{[1-(3-chloro(2-pyridyl))-isopropyl]amino}pyrimidin-5-yl)pyrazol-4-yl]propan-2-ol] | D (D=>20 uM)
28 | CC(C)(Nc1ncc(-c2ncc(C(N)=O)o2)cn1)c1ncccc1Cl [2-(2-{[1-(3-chloro(2-pyridyl))-isopropyl]amino}pyrimidin-5-yl)-1,3-oxazole-5-carboxamide] | D (D=>20 uM)
29 | NC(=O)c1cccc(-c2cnc(NC[C@]3(c4ncccc4F)C[C@H](F)C3)nc2O)c1 [3-[2-({[3-fluoro-1-(3-fluoro(2-pyridyl))cyclobutyl]methyl}amino)-4-hydroxypyrimidin-5-yl]benzamide] | B (B=1-10 uM)
30 | CC(C)(CNc1ncc(-c2ccc3[nH]c(=O)[nH]c3c2)cn1)c1ccc(F)cc1 [5-(2-{[2-(4-fluorophenyl)-2-methylpropyl]amino}pyrimidin-5-yl)-3-hydrobenzimidazol-2-one] | B (B=1-10 uM)
31 | CC(C)(Nc1ncc(-c2nc(C(=O)O)cs2)cn1)c1ncccc1Cl [2-(2-{[1-(3-chloro(2-pyridyl))-isopropyl]amino}pyrimidin-5-yl)-1,3-thiazole-4-carboxylic acid] | D (D=>20 uM)
32 | N#Cc1cc(-c2cnc(NC3(c4ccc(F)cc4)CCC3)nc2)ccn1 [4-(2-{[(4-fluorophenyl)cyclobutyl]amino}pyrimidin-5-yl)pyridine-2-carbonitrile] | C (C=10-20 uM)
33 | CC(C)(CNc1ncc2c(n1)CCN(C(=O)C(N)=O)C2)c1ccc(F)cc1 [2-(2-{[2-(4-fluorophenyl)-2-methylpropyl]amino}(5,6,7,8-tetrahydropyridino[4,3-d]pyrimidin-6-yl))-2-oxoacetamide] | D (D=>20 uM)
34 | CC(C)(Nc1ncc(-c2cc(C#N)ccc2F)cn1)c1ncccc1C(F)F [3-[2-({1[3-(difluoromethyl)(2-pyridyl)]-isopropyl}amino)pyrimidin-5-yl]-4-fluorobenzenecarbonitrile] | B (B=1-10 uM)
35 | Oc1ncccc1-c1cnc(NC[C@]2(c3ncccc3F)C[C@H](F)C2)nc1 [3-[2-({[3-fluoro-1-(3-fluoro(2-pyridyl))cyclobutyl]methyl}amino)pyrimidin-5-yl]pyridin-2-ol] | C (C=10-20 uM)
36 | ethyl 1-[(2-{[2-(4-fluorophenyl)-2- methylpropyl]amino}pyrimidin-5- yl)carbonylamino] cyclopropanecarboxylate | D (D=>20 uM)
37 | N#CCc1cnc(-c2cnc(NCC3(c4ncccc4F)CCC3)nc2)s1 [2-{2-[2-({[(3-fluoro-2-pyridyl)cyclobutyl]methyl}amino)pyrimidin-5-yl]-1,3-thiazol-5-yl}ethanenitrile] | B (B=1-10 uM)
38 | CC(=O)N1CCc2nc(NCC(C)(C)c3ccc(F)cc3)ncc2C1 [6-acetyl-2-{[2-(4-fluorophenyl)-2-methylpropyl]amino}-5,6,7,8-tetrahydropyridino[4,3-d]pyrimidine] | D (D=>20 uM)
39 | CC(C)[C@H](Nc1ncc(-c2ncc(C(N)=O)s2)cn1)c1ncccc1Cl [2-(2-{[(1S)-1-(3-chloro(2-pyridyl))-2-methylpropyl]amino}pyrimidin-5-yl)-1,3-thiazole-5-carboxamide] | D (D=>20 uM)
